Data reported in US5753617A, “Peptide inhibitors of cellular adhesion” (Centocor, Inc., priority 1995, dated 1998).
Where “and” joins values, the source holds several entries; their conditions need not be identical. Equal values may be shown once. Read-outs that look alike come from different tables or passages of the source. Values belong to the compound of their own block, whether it stands above or below them. Where a SMILES comes first, the peptide text is derived from it. Bridges are numbered along the chain shown (N, C = ends). [ ]: non-standard residue; d: D form.

Assays:
[1] = target: T1, P-selectin (Homo sapiens, UniProt P16109); assay: Inhibition of human neutrophil adhesion to purified P-selectin immobilized on plastic wells; assay type: cell-based; details: inhibiting the binding of human neutrophils to P-selectin
T1 construct: P-selectin is isolated from human platelet lysates; from tissue; host or cells: human platelets (outdated platelet packs from a blood bank)
T1 sequence (P16109 42-830): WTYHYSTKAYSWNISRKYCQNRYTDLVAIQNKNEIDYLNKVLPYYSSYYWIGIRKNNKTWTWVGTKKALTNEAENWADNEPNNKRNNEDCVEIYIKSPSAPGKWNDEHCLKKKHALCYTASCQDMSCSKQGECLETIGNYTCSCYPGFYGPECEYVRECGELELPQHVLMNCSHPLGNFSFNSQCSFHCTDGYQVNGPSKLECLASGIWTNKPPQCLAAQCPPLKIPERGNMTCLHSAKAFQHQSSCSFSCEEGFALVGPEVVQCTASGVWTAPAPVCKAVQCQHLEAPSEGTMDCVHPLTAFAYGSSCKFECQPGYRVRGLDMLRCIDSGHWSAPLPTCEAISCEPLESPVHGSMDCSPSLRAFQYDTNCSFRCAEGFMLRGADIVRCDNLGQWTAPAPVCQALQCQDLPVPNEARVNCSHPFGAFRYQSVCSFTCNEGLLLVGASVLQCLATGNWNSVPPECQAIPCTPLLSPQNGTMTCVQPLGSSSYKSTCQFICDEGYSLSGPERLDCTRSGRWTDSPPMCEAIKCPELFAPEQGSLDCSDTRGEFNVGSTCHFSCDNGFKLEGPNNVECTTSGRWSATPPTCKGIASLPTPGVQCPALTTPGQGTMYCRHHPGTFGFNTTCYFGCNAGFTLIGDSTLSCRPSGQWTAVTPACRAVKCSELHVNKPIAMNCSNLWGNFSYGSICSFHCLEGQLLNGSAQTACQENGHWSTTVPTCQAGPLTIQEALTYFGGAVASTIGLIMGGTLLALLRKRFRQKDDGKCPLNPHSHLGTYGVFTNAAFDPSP
How it was run: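 Isolated human neutrophils (2×10^5 per well) in HBSS with Ca2+/Mg2+ and HSA added to wells coated overnight at 4° C with platelet-derived P-selectin (5 micrograms/mL), HSA-blocked; 20 min at 22° C. Nonadherent cells removed by inverted centrifugation at 150 g; adherent cells quantified by myeloperoxidase activity.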

[2] = disulfide bond, water

IC50 [1]: 46.2 µM and 78.3 µM
SMILES: CC(C)[C@@H](NC(=O)[C@@H](Cc1c[nH]c2ccccc12)NC(=O)[C@H](NC(=O)[C@@H](Cc1c[nH]c2ccccc12)NC(=O)[C@H]1CSSC[C@@H](NC(=O)[C@@H](CCCCN)NC(=O)[C@H](N)CCCNC(=N)N)C(=O)NCC(=O)N[C@@H](CCC(N)=O)C(=O)N1)[C@H](C)O)C(N)=O [(65)] (H-[dR][dK][dC]GQ[dC][dW][dT][dW][dV]-NH2; disulfide 3-6)
ring closure, yield of all isomers ([2]; from CC(C)[C@@H](NC(=O)[C@@H](Cc1c[nH]c2ccccc12)NC(=O)[C@H](NC(=O)[C@@H](Cc1c[nH]c2ccccc12)NC(=O)[C@@H](CS)NC(=O)[C@H](CCC(N)=O)NC(=O)CNC(=O)[C@@H](CS)NC(=O)[C@@H](CCCCN)NC(=O)[C@H](N)CCCNC(=N)N)[C@H](C)O)C(N)=O, Cu wire, NH4OH (printed NH2OH), 3.16 mM, 20.0 h): 6.1%

IC50 [1]: 42.7 µM
SMILES: CC(C)[C@@H](NC(=O)[C@@H](Cc1c[nH]c2ccccc12)NC(=O)[C@H](NC(=O)[C@@H](Cc1c[nH]c2ccccc12)NC(=O)[C@H]1CSSC[C@@H](NC(=O)[C@@H](CCCCN)NC(=O)[C@H](N)CCCNC(=N)N)C(=O)NCC(=O)N[C@@H](Cc2ccccc2)C(=O)N1)C(C)C)C(=O)O [(103)] (H-[dR][dK][dC]GF[dC][dW][dV][dW][dV]-OH; disulfide 3-6)
ring closure, yield of all isomers ([2]; from CC(C)[C@@H](NC(=O)[C@@H](Cc1c[nH]c2ccccc12)NC(=O)[C@H](NC(=O)[C@@H](Cc1c[nH]c2ccccc12)NC(=O)[C@@H](CS)NC(=O)[C@H](Cc1ccccc1)NC(=O)CNC(=O)[C@@H](CS)NC(=O)[C@@H](CCCCN)NC(=O)[C@H](N)CCCNC(=N)N)C(C)C)C(=O)O, air, Cu wire, ammonium acetate, 0.605 mM, 22.0 h): 2.7%

IC50 [1]: 10.3 µM
SMILES: CC[C@@H](C)[C@H]1NC(=O)CNC(=O)[C@H](NC(=O)[C@@H](CCCCN)NC(=O)[C@H](N)CCCNC(=N)N)CSSC[C@H](C(=O)N[C@H](Cc2c[nH]c3ccccc23)C(=O)N[C@@H](C(=O)N[C@H](Cc2c[nH]c3ccccc23)C(=O)N[C@@H](C(N)=O)C(C)C)[C@H](C)O)NC1=O [(52)] (H-[dR][dK][dC]G[dI][dC][dW][dT][dW][dV]-NH2; disulfide 3-6)
ring closure, yield of all isomers ([2]; from CC[C@@H](C)[C@@H](NC(=O)CNC(=O)[C@@H](CS)NC(=O)[C@@H](CCCCN)NC(=O)[C@H](N)CCCNC(=N)N)C(=O)N[C@H](CS)C(=O)N[C@H](Cc1c[nH]c2ccccc12)C(=O)N[C@@H](C(=O)N[C@H](Cc1c[nH]c2ccccc12)C(=O)N[C@@H](C(N)=O)C(C)C)[C@H](C)O, DMSO, 0.341 mM, 25.0 °C, 72.0 h): 16.6%

IC50 [1]: 2000 µM
SMILES: CC(C)[C@@H](NC(=O)[C@@H](Cc1c[nH]c2ccccc12)NC(=O)[C@H](NC(=O)[C@@H](Cc1c[nH]c2ccccc12)NC(=O)[C@H]1CSSC[C@@H](NC(=O)[C@@H](CCCCN)NC(=O)[C@H](N)CCCNC(=N)N)C(=O)NCC(=O)N[C@@H](CCCCN)C(=O)N1)[C@H](C)O)C(N)=O [(71)] (H-[dR][dK][dC]GK[dC][dW][dT][dW][dV]-NH2; disulfide 3-6)
ring closure, yield of all isomers ([2]; from CC(C)[C@@H](NC(=O)[C@@H](Cc1c[nH]c2ccccc12)NC(=O)[C@H](NC(=O)[C@@H](Cc1c[nH]c2ccccc12)NC(=O)[C@@H](CS)NC(=O)[C@H](CCCCN)NC(=O)CNC(=O)[C@@H](CS)NC(=O)[C@@H](CCCCN)NC(=O)[C@H](N)CCCNC(=N)N)[C@H](C)O)C(N)=O, DMSO, 0.181 mM, 72.0 h): 10.4%

IC50 [1]: 325 µM
SMILES: CC(C)[C@H](NC(=O)[C@H](Cc1c[nH]c2ccccc12)NC(=O)[C@@H](NC(=O)[C@H](Cc1c[nH]c2ccccc12)NC(=O)[C@@H]1CSSC[C@H](N)C(=O)NCC(=O)NCC(=O)N1)[C@@H](C)O)C(N)=O [(29)] (H-CGGCWTWV-NH2; disulfide 1-4)
ring closure, yield of all isomers ([2]; from CC(C)[C@H](NC(=O)[C@H](Cc1c[nH]c2ccccc12)NC(=O)[C@@H](NC(=O)[C@H](Cc1c[nH]c2ccccc12)NC(=O)[C@H](CS)NC(=O)CNC(=O)CNC(=O)[C@@H](N)CS)[C@@H](C)O)C(N)=O, DMSO, 0.285 mM, 16.0 h): 8.5%

IC50 [1]: 22.3 µM
SMILES: CC(C)[C@@H]1NC(=O)CNC(=O)[C@H](NC(=O)[C@@H](CCCCN)NC(=O)[C@H](N)CCCNC(=N)N)CSSC[C@H](C(=O)N[C@H](Cc2c[nH]c3ccccc23)C(=O)N[C@@H](C(=O)N[C@H](Cc2c[nH]c3ccccc23)C(=O)N[C@@H](C(N)=O)C(C)C)[C@H](C)O)NC1=O [(89)] (H-[dR][dK][dC]GV[dC][dW][dT][dW][dV]-NH2; disulfide 3-6)
ring closure, yield of all isomers ([2]; from CC(C)[C@H](NC(=O)CNC(=O)[C@@H](CS)NC(=O)[C@@H](CCCCN)NC(=O)[C@H](N)CCCNC(=N)N)C(=O)N[C@H](CS)C(=O)N[C@H](Cc1c[nH]c2ccccc12)C(=O)N[C@@H](C(=O)N[C@H](Cc1c[nH]c2ccccc12)C(=O)N[C@@H](C(N)=O)C(C)C)[C@H](C)O, DMSO, 0.387 mM, 25.0 °C, 72.0 h): 4%

IC50 [1]: 59.7 µM
SMILES: CC(C)[C@@H](NC(=O)[C@@H](Cc1c[nH]c2ccccc12)NC(=O)[C@H](NC(=O)[C@@H](Cc1c[nH]c2ccccc12)NC(=O)[C@H]1CSSC[C@@H](NC(=O)[C@@H](CCCCN)NC(=O)[C@H](N)CCCNC(=N)N)C(=O)NCC(=O)N[C@H](CCCCN)C(=O)N1)[C@H](C)O)C(N)=O [(55)] (H-[dR][dK][dC]G[dK][dC][dW][dT][dW][dV]-NH2; disulfide 3-6)
ring closure, yield of all isomers ([2]; from CC(C)[C@@H](NC(=O)[C@@H](Cc1c[nH]c2ccccc12)NC(=O)[C@H](NC(=O)[C@@H](Cc1c[nH]c2ccccc12)NC(=O)[C@@H](CS)NC(=O)[C@@H](CCCCN)NC(=O)CNC(=O)[C@@H](CS)NC(=O)[C@@H](CCCCN)NC(=O)[C@H](N)CCCNC(=N)N)[C@H](C)O)C(N)=O, DMSO, 0.175 mM, 120.0 h): 10.6%

IC50 [1]: 75 µM
SMILES: CC(C)[C@@H](NC(=O)[C@@H](Cc1c[nH]c2ccccc12)NC(=O)[C@H](NC(=O)[C@@H](Cc1c[nH]c2ccccc12)NC(=O)[C@H]1CSSC[C@@H](NC(=O)[C@@H](CCCCN)NC(=O)[C@H](N)CCCNC(=N)N)C(=O)NCC(=O)N[C@@H](C)C(=O)N1)[C@H](C)O)C(N)=O [(38)] (H-[dR][dK][dC]GA[dC][dW][dT][dW][dV]-NH2; disulfide 3-6)
ring closure, yield of all isomers ([2]; from CC(C)[C@@H](NC(=O)[C@@H](Cc1c[nH]c2ccccc12)NC(=O)[C@H](NC(=O)[C@@H](Cc1c[nH]c2ccccc12)NC(=O)[C@@H](CS)NC(=O)[C@H](C)NC(=O)CNC(=O)[C@@H](CS)NC(=O)[C@@H](CCCCN)NC(=O)[C@H](N)CCCNC(=N)N)[C@H](C)O)C(N)=O, air/Cu wire, NH4OH, 3.31 mM, 20.0 h): 15.1%

IC50 [1]: 49 µM
SMILES: CC(C)[C@@H](NC(=O)[C@@H](Cc1c[nH]c2ccccc12)NC(=O)[C@H](NC(=O)[C@@H](Cc1c[nH]c2ccccc12)NC(=O)[C@H]1CSSC[C@@H](NC(=O)[C@@H](CCCCN)NC(=O)[C@H](N)CCCNC(=N)N)C(=O)N[C@@H](Cc2ccccc2)C(=O)NCC(=O)N1)[C@H](C)O)C(N)=O [(18)] (H-[dR][dK][dC]FG[dC][dW][dT][dW][dV]-NH2; disulfide 3-6)
ring closure, yield of all isomers ([2]; from CC(C)[C@@H](NC(=O)[C@@H](Cc1c[nH]c2ccccc12)NC(=O)[C@H](NC(=O)[C@@H](Cc1c[nH]c2ccccc12)NC(=O)[C@@H](CS)NC(=O)CNC(=O)[C@H](Cc1ccccc1)NC(=O)[C@@H](CS)NC(=O)[C@@H](CCCCN)NC(=O)[C@H](N)CCCNC(=N)N)[C@H](C)O)C(N)=O, DMSO, 0.253 mM): 13.7% | ring closure, yield of all isomers ([2]; from CC(C)[C@@H](NC(=O)[C@@H](Cc1c[nH]c2ccccc12)NC(=O)[C@H](NC(=O)[C@@H](Cc1c[nH]c2ccccc12)NC(=O)[C@@H](CS)NC(=O)CNC(=O)[C@H](Cc1ccccc1)NC(=O)[C@@H](CS)NC(=O)[C@@H](CCCCN)NC(=O)[C@H](N)CCCNC(=N)N)[C@H](C)O)C(N)=O, DMSO, 0.253 mM, 16.0 h): 13.7%

IC50 [1]: 7 µM
SMILES: CC(C)[C@@H](NC(=O)[C@@H](Cc1c[nH]c2ccccc12)NC(=O)[C@H](NC(=O)[C@@H](Cc1c[nH]c2ccccc12)NC(=O)[C@H]1CSSC[C@@H](NC(=O)[C@@H](CCCCN)NC(=O)[C@H](N)CCCNC(=N)N)C(=O)N[C@H](C)C(=O)N[C@@H](Cc2ccccc2)C(=O)N1)[C@H](C)O)C(N)=O [(11)] (H-[dR][dK][dC][dA]F[dC][dW][dT][dW][dV]-NH2; disulfide 3-6)
ring closure, yield of all isomers ([2]; from CC(C)[C@@H](NC(=O)[C@@H](Cc1c[nH]c2ccccc12)NC(=O)[C@H](NC(=O)[C@@H](Cc1c[nH]c2ccccc12)NC(=O)[C@@H](CS)NC(=O)[C@H](Cc1ccccc1)NC(=O)[C@@H](C)NC(=O)[C@@H](CS)NC(=O)[C@@H](CCCCN)NC(=O)[C@H](N)CCCNC(=N)N)[C@H](C)O)C(N)=O, air, Cu wire, dilute AcOH/NH4OH pH 8.5, 3.08 mM): 2.4%
